18 compounds from patent publication US20150353495A1 (PORTOLA PHARMACEUTICALS, INC., priority 2010, published 2015) can be followed below.

One assay concerns the target T1, JAK3 (Homo sapiens, UniProt P52333).
T1 construct: 5 μl of catalytic domain recombinant Kinase enzyme+Tyr peptide substrate (Invitrogen, CA); purchased Invitrogen
Description: Z'-LYTE kinase assay JAK3. Format: biochemical. A digest of the protocol:
(§1)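 In duplicate wells, each test molecule (1% final DMSO) is incubated with recombinant kinase catalytic domain, Tyr6 peptide substrate and ATP for one hour at room temperature; a site-specific protease is then added for another hour before fluorescence reading.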

In assay [1] the test system is JAK1/3 signaling to STAT5 in primary T cells. As to the kind of experiment: IL2 stimulation of JAK1/3 signaling to STAT5 in primary T cells (pSTAT5 Y694, FACS). Format: cell-based. The settings on record: T-cell; for inhibition at 0.2 µM: 0.2 uM compound, read-out: IL-2/STAT5 Percent Inhibition at 0.2 uM; for inhibition at 1 µM: 1.0 μM compound, read-out: IL-2/STAT5 Percent Inhibition at 1.0 μM. How it is done: IL2 Stimulation of JAK1/3 Signaling to STAT5 in Primary T Cells:
The effect of JAK inhibitors on cytokine signaling pathways utilizing JAK3 was determined using an IL2 stimulation assay. IL2 engages a receptor complex that contains the IL2 receptor alpha and beta subunits, and the common gamma chain, to initiate activation of JAK1 and JAK3 leading to phosphorylation of STAT5 at tyrosine position 694. Lymphocytes are isolated from heparinized whole blood over a ficoll gradient, then resuspended in tissue culture media containing 10% fetal calf serum at 10×10̂6 cells/ml. 100 μl aliquots are pre-treated for 1 hour with various concentrations of compound, and then stimulated for 12 minutes with 100 U/ml IL2. The signaling reaction is terminated by fixing in 2% paraformaldehyde for 10 minutes at room temperature. Fixed cells are then washed and permeablized by suspension in 50% methanol (in PBS) at −80° C. Following overnight incubation at 4° C., cells are washed and resuspended in PBS containing 0.5% bovine serum albumin containing CD3-APC and pSTAT5 Y694-PE conjugated antibodies. After 1 hour incubation, cells are washed and the extent of STAT5 phosphorlyation in T cells is measured by FACS analysis.

The target in the next assay is T2, TYK2 (Homo sapiens, UniProt P29597).
T2 construct: 5 μl of catalytic domain recombinant Kinase enzyme+Tyr peptide substrate (Invitrogen, CA); purchased Invitrogen
T2 sequence (P29597 897-1176 limits assumed): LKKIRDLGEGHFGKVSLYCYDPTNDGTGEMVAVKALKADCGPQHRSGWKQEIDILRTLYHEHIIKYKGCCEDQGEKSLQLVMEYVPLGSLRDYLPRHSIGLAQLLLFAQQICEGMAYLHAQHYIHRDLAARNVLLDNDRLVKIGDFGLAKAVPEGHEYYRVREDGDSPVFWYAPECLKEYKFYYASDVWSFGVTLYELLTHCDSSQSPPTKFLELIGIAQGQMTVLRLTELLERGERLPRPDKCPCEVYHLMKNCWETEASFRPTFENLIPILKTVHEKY
As to the kind of experiment: Z'-LYTE kinase assay TYK2. Format: biochemical. An outline of the steps:
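IC50 derived by 4-parameter logistic fit of percent substrate phosphorylation relative to uninhibited wells. Tyr6 peptide phosphorylated by recombinant TYK2 catalytic domain for 1 h at room temperature (1% DMSO), cleaved by development protease 1 h, FRET emission ratio 445/520 nm.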

The target of the next assay is T3, JAK1 (Homo sapiens, UniProt P23458).
T3 construct: 5 μl of catalytic domain recombinant Kinase enzyme+Tyr peptide substrate (Invitrogen, CA); purchased Invitrogen
T3 sequence (P23458 875-1153 limits assumed): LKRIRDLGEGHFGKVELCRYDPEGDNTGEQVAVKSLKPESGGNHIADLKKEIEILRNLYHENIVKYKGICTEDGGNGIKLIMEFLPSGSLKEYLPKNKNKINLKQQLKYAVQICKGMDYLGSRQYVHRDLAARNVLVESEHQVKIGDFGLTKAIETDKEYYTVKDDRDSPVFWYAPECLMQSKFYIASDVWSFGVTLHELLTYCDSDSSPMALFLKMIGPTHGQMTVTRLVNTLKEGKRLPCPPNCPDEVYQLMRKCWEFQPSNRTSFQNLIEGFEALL
Description: Z'-LYTE kinase assay JAK1. Format: biochemical. A digest of the protocol:
as §1

A further assay concerns the target T4, JAK2 (Homo sapiens, UniProt O60674).
T4 construct: 5 μl of catalytic domain recombinant Kinase enzyme+Tyr peptide substrate (Invitrogen, CA); purchased Invitrogen
As to the kind of experiment: Z'-LYTE kinase assay JAK2. Format: biochemical. A digest of the protocol: as §1

T1 sequence (P52333 822-1111 limits assumed): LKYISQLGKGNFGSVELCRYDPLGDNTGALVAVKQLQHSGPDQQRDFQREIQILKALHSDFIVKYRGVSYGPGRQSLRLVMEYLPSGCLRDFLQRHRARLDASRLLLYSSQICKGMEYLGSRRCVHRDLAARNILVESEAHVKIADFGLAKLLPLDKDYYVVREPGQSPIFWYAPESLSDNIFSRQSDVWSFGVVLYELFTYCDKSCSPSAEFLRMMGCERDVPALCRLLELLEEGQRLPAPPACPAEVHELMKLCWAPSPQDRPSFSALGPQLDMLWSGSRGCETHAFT
T4 sequence (O60674 849-1124 limits assumed): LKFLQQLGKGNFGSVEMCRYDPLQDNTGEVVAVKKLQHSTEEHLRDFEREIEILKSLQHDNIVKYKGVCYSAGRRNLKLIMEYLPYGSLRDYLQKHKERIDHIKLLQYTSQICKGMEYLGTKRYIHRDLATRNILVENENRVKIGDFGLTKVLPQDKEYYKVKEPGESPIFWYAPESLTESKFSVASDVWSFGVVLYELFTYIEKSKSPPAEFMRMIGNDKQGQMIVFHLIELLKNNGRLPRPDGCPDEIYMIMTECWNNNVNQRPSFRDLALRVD

As to `NC(=O)c1cnc(Nc2cccc(C(=O)N3CCC3)c2)cc1NCc1ccccc1` [Example 45, 6-(3-(azetidine-1-carbonyl)phenylamino)-4-(benzylamino)nicotinamide], the IC50 on JAK3 was 0.01 to 0.1 µM; against TYK2, over 1 µM; against JAK1 it was 0.1 to 1 µM; against JAK2, 0.1 to 1 µM. The inhibition at 0.2 µM in assay [1] amounted to 22%. In addition, in assay [1], the inhibition at 1 µM turned out to be 25%.
`CCC(=O)N1CCC(c2ccc(Nc3cc(NCc4cccc5[nH]ccc45)c(C(N)=O)cn3)cc2)CC1` [Example 200, 4-((1H-indol-4-yl)methylamino)-6-(4-(1-propionylpiperidin-4-yl)phenylamino)nicotinamide]: the IC50 against JAK3 lay within 0.001 to 0.01 µM; against TYK2, 0.01 to 0.1 µM; against JAK1 it was 0.01 to 0.1 µM; against JAK2 it was 0.01 to 0.1 µM. Besides, the inhibition at 0.2 µM in assay [1] was found to be 77%. In assay [1], the inhibition at 1 µM came out at 103%.
Take `NC(=O)c1cnc(Nc2ccc(C3CCNCC3)cc2)cc1NCc1cccc(F)c1F` [Example 209, 4-(2,3-difluorobenzylamino)-6-(4-(piperidin-4-yl)phenylamino)nicotinamide]: the IC50 against JAK3 was 0.001 to 0.01 µM; against TYK2, 0.1 to 1 µM; on JAK1 it was 0.1 to 1 µM; against JAK2, 0.01 to 0.1 µM. In assay [1], the inhibition at 0.2 µM was 70%. Moreover, the inhibition at 1 µM in assay [1] is 99%.
For the compound `Cc1cc(Nc2cc(NCc3cccc4cc[nH]c34)c(C(N)=O)cn2)ccc1C(=O)N(C)C` [Example 283, 4-((1H-indol-7-yl)methylamino)-6-(4-(dimethylcarbamoyl)-3-methylphenylamino)nicotinamide], the IC50 on JAK3 was 0.001 to 0.01 µM; against TYK2, over 1 µM; on JAK1, over 1 µM; against JAK2, 0.01 to 0.1 µM. The inhibition at 0.2 µM in assay [1] is 42%. The inhibition at 1 µM in assay [1] is 65%.
On to `COc1ccc(Nc2cc(NCc3cccc4ccsc34)c(C(N)=O)cn2)cc1` [Example 284, 4-(benzo[b]thiophen-7-ylmethylamino)-6-(4-methoxyphenylamino)nicotinamide], for which the IC50 is 0.01 to 0.1 µM at JAK3, over 1 µM against TYK2, over 1 µM on JAK1 and 0.1 to 1 µM at JAK2. Further, the inhibition at 0.2 µM in assay [1] was 39%. Further, the inhibition at 1 µM in assay [1] stood at 75%.
`Cc1cc(Nc2cc(NCc3cccc4ccsc34)c(C(N)=O)cn2)ccc1C(=O)N(C)C` [Example 285, 4-(benzo[b]thiophen-7-ylmethylamino)-6-(4-(dimethylcarbamoyl)-3-methylphenylamino)nicotinamide]: the IC50 is under 0.001 µM against JAK3, 0.1 to 1 µM against TYK2, 0.01 to 0.1 µM against JAK1 and 0.01 to 0.1 µM against JAK2. For the same compound, the inhibition at 0.2 µM in assay [1] was 58%. The inhibition at 1 µM in assay [1] is 96%.
On to `COc1ccc(Nc2cc(NCc3cccc4[nH]ccc34)c(C(N)=O)cn2)cc1` [Example 294, 4-((1H-indol-4-yl)methylamino)-6-(4-methoxyphenylamino)nicotinamide], for which the IC50 against JAK3 fell in the range of 0.001 to 0.01 µM; against TYK2 it was 0.1 to 1 µM; on JAK1 it was 0.01 to 0.1 µM; on JAK2, 0.01 to 0.1 µM. Moreover, the inhibition at 0.2 µM in assay [1] was 75%. In addition, the inhibition at 1 µM in assay [1] was 102%.
As for `NC(=O)c1cnc(Nc2ccc(F)cc2)cc1NCc1cccc2[nH]ccc12` [Example 319, 4-((1H-indol-4-yl)methylamino)-6-(4-fluorophenylamino)nicotinamide], the half-inhibitory concentration (IC50) lay in the range of 0.001 to 0.01 µM against JAK3, 0.1 to 1 µM at TYK2, 0.1 to 1 µM on JAK1 and 0.1 to 1 µM at JAK2. Besides, in assay [1], the inhibition at 0.2 µM is 81%. Besides, the inhibition at 1 µM in assay [1] is 103%.
Consider `CS(=O)(=O)c1ccc(Nc2cc(NCc3cccc4[nH]ccc34)c(C(N)=O)cn2)cc1` [Example 320, 4-((1H-indol-4-yl)methylamino)-6-(4-(methylsulfonyl)phenylamino)nicotinamide], for which the IC50 is 0.001 to 0.01 µM against JAK3, 0.01 to 0.1 µM on TYK2, 0.01 to 0.1 µM on JAK1 and 0.01 to 0.1 µM against JAK2. Moreover, the inhibition at 0.2 µM in assay [1] was determined as 90%. In assay [1], the inhibition at 1 µM came to 108%.
As for `NC(=O)c1cnc(Nc2ccc(OC(F)F)cc2)cc1NCc1cccc2[nH]ccc12` [Example 321, 4-((1H-indol-4-yl)methylamino)-6-(4-(difluoromethoxy)phenylamino)nicotinamide], the IC50 at JAK3 is 0.01 to 0.1 µM; against TYK2, over 1 µM; on JAK1 it was 0.1 to 1 µM; against JAK2 it was 0.1 to 1 µM. Besides, in assay [1], the inhibition at 0.2 µM is 42%. The inhibition at 1 µM in assay [1] is 94%.
As for `NC(=O)c1cnc(Nc2ccc(OC(F)(F)F)cc2)cc1NCc1cccc2[nH]ccc12` [Example 322, 4-((1H-indol-4-yl)methylamino)-6-(4-(trifluoromethoxy)phenylamino)nicotinamide], the 50% inhibitory concentration (IC50) against JAK3 was 0.1 to 1 µM; at TYK2, over 1 µM; on JAK1, over 1 µM; at JAK2 it was over 1 µM. The inhibition at 0.2 µM in assay [1] was found to be 27%. Further, the inhibition at 1 µM in assay [1] was 70%.
For `NC(=O)c1cnc(Nc2ccc(N3CCN(c4ccccn4)CC3)cc2)cc1NCc1ccccc1` [Example 385], the results for the IC50 at JAK3, on JAK1 and at JAK2 were 0.01 to 0.1 µM, over 1 µM and over 1 µM, respectively. Besides, in assay [1], the inhibition at 0.2 µM was 37%. Further, the inhibition at 1 µM in assay [1] is 62%.
In the case of `CS(=O)(=O)Nc1cccc(Nc2cc(NCc3ccccc3)c(C(N)=O)cn2)c1` [Example 388], the half-inhibitory concentration (IC50) on JAK3 lay in the range of 0.001 to 0.01 µM; against TYK2, 0.1 to 1 µM; on JAK1, 0.1 to 1 µM; on JAK2 it was 0.1 to 1 µM. Also, the inhibition at 0.2 µM in assay [1] was 18%. Besides, the inhibition at 1 µM in assay [1] was 55%.
With `CS(=O)(=O)Nc1ccc(Nc2cc(NCc3ccccc3)c(C(N)=O)cn2)cc1` [Example 389], the IC50 on JAK3 is 0.001 to 0.01 µM; at TYK2 it was 0.1 to 1 µM; at JAK1, 0.1 to 1 µM; against JAK2, 0.1 to 1 µM. In addition, the inhibition at 0.2 µM in assay [1] turned out to be 56%. In addition, the inhibition at 1 µM in assay [1] worked out at 88%.
Regarding `CN(C)C(=O)c1ccc(Nc2cc(NCc3cccc(-c4ccncc4)c3)c(C(N)=O)cn2)cc1` [Example 412, 6-(4-(dimethylcarbamoyl)phenylamino)-4-(3-(pyridine-4-yl)benzylamino)nicotinamide], the IC50 at JAK3 fell in the range of 0.001 to 0.01 µM; against JAK1, 0.1 to 1 µM; at JAK2, 0.1 to 1 µM. Moreover, the inhibition at 0.2 µM in assay [1] came out at 25%. In addition, the inhibition at 1 µM in assay [1] was 59%.
`CCC(=O)N1CCN(c2ccc(Nc3cc(NCc4cccc(F)c4F)c(C(N)=O)cn3)cc2)CC1` [Example 435, 4-(2,3-difluorobenzylamino)-6-(4-(4-propionylpiperazin-1-yl)phenylamino)nicotinamide]: the IC50 fell in the range of 0.001 to 0.01 µM against JAK3, 0.1 to 1 µM against TYK2, 0.1 to 1 µM at JAK1 and 0.01 to 0.1 µM on JAK2. Further, the inhibition at 0.2 µM in assay [1] was 63%. The inhibition at 1 µM in assay [1] came out at 102%.
As to `Cc1cc(Nc2cc(NCc3cccc4ccsc34)c(C(N)=O)cn2)ccc1C(=O)N1CCC1` [Example 457, 6-(4-(azetidine-1-carbonyl)-3-methylphenylamino)-4-(benzo[b]thiophen-7-ylmethylamino)nicotinamide], the IC50 at JAK3 was under 0.001 µM; against TYK2 it was 0.1 to 1 µM; on JAK1, 0.1 to 1 µM; against JAK2, 0.01 to 0.1 µM. Also, in assay [1], the inhibition at 0.2 µM came out at 56%. In addition, in assay [1], the inhibition at 1 µM stood at 100%.
With `Cc1cc(Nc2cc(NCc3cccc4ccsc34)c(C(N)=O)cn2)ccc1C(=O)N1CCCC1` [Example 458, 4-(benzo[b]thiophen-7-ylmethylamino)-6-(3-methyl-4-(pyrrolidine-1-carbonyl)phenylamino)nicotinamide], the IC50 lay in the range of 0.001 to 0.01 µM on JAK3, 0.01 to 0.1 µM at TYK2, 0.1 to 1 µM on JAK1 and 0.01 to 0.1 µM against JAK2. The inhibition at 0.2 µM in assay [1] turned out to be 49%. Besides, the inhibition at 1 µM in assay [1] is 104%.

One may read the IC50 as the concentration at which inhibition is half-maximal.
